{"source": "PubChem BioAssay AID2060606", "about": "(Molecular Pharmacology Branch, DTP, NCI, 2025);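 further: spheroids exposed to the agents for 7 days before readout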", "test_system": "922993-354-T-J3-PDC complex spheroids, viability, % test/control", "experiment": "Anticancer human tumor 922993-354-T-J3-PDC patient-derived endometrial carcinoma cell line growth inhibition [CLK]", "conditions": "for IC50: curve of first compound; for viability, T/C: stronger effect = lower value", "summary_of_the_method": "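Multi-cell-type spheroids combined patient-derived tumor cells with HUVEC endothelial cells and human mesenchymal stem cells. Paired agents were dosed in half-log steps down from about clinical Cmax, or from 10 microM where Cmax was unknown.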", "data": [{"smiles": "CC(C)CC(NC(=O)C(Cc1ccccc1)NC(=O)c1cnccn1)B(O)O", "note": "(centres undefined) + CNC(=O)c1ccc(Nc2nc(OC3CCCC3)c3c(-c4ccc5nc(C)oc5c4)c[nH]c3n2)c(OC)c1", "values": [{"measurement": "IC50", "setting": "second compound 0.0316 µM", "result": 10.3, "unit": "nM"}, {"measurement": "IC50", "setting": "second compound 0.1 µM", "result": 11.1, "unit": "nM"}, {"measurement": "IC50", "setting": "second compound 0.316 µM", "result": 5.27, "unit": "nM"}, {"measurement": "IC50", "setting": "second compound 1 µM", "result": "< 0.949", "unit": "nM"}, {"measurement": "IC50", "setting": "second compound 3.16 µM", "result": "< 0.949", "unit": "nM"}, {"measurement": "IC50", "setting": "second compound 10 µM", "result": "< 0.949", "unit": "nM"}, {"measurement": "viability, T/C", "setting": "second compound 0.0316 µM, first compound 0.000949 µM", "result": 106, "unit": "%"}, {"measurement": "viability, T/C", "setting": "second compound 0.0316 µM, first compound 0.003 µM", "result": 91.4, "unit": "%"}, {"measurement": "viability, T/C", "setting": "second compound 0.0316 µM, first compound 0.00949 µM", "result": 53, "unit": "%"}, {"measurement": "viability, T/C", "setting": "second compound 0.0316 µM, first compound 0.03 µM", "result": 15, "unit": "%"}, {"measurement": "viability, T/C", "setting": "second compound 0.0316 µM, first compound 0.0949 µM", "result": 1.67, "unit": "%"}, {"measurement": "viability, T/C", "setting": "second compound 0.0316 µM, first compound 0.3 µM", "result": 2.25, "unit": "%"}, {"measurement": "viability, T/C", "setting": "second compound 0.1 µM, first compound 0.000949 µM", "result": 79.8, "unit": "%"}, {"measurement": "viability, T/C", "setting": "second compound 0.1 µM, first compound 0.003 µM", "result": 65.5, "unit": "%"}, {"measurement": "viability, T/C", "setting": "second compound 0.1 µM, first compound 0.00949 µM", "result": 57.2, "unit": "%"}, {"measurement": "viability, T/C", "setting": "second compound 0.1 µM, first compound 0.03 µM", "result": 10.3, "unit": "%"}, {"measurement": "viability, T/C", "setting": "second compound 0.1 µM, first compound 0.0949 µM", "result": 2.17, "unit": "%"}, {"measurement": "viability, T/C", "setting": "second compound 0.1 µM, first compound 0.3 µM", "result": 0.85, "unit": "%"}, {"measurement": "viability, T/C", "setting": "second compound 0.316 µM, first compound 0.000949 µM", "result": 80.2, "unit": "%"}, {"measurement": "viability, T/C", "setting": "second compound 0.316 µM, first compound 0.003 µM", "result": 64.4, "unit": "%"}, {"measurement": "viability, T/C", "setting": "second compound 0.316 µM, first compound 0.00949 µM", "result": 35.2, "unit": "%"}, {"measurement": "viability, T/C", "setting": "second compound 0.316 µM, first compound 0.03 µM", "result": 6.18, "unit": "%"}, {"measurement": "viability, T/C", "setting": "second compound 0.316 µM, first compound 0.0949 µM", "result": 2.17, "unit": "%"}, {"measurement": "viability, T/C", "setting": "second compound 0.316 µM, first compound 0.3 µM", "result": 0.48, "unit": "%"}, {"measurement": "viability, T/C", "setting": "second compound 1 µM, first compound 0.000949 µM", "result": 36.8, "unit": "%"}, {"measurement": "viability, T/C", "setting": "second compound 1 µM, first compound 0.003 µM", "result": 32.6, "unit": "%"}, {"measurement": "viability, T/C", "setting": "second compound 1 µM, first compound 0.00949 µM", "result": 14, "unit": "%"}, {"measurement": "viability, T/C", "setting": "second compound 1 µM, first compound 0.03 µM", "result": 3.9, "unit": "%"}, {"measurement": "viability, T/C", "setting": "second compound 1 µM, first compound 0.0949 µM", "result": 0.77, "unit": "%"}, {"measurement": "viability, T/C", "setting": "second compound 1 µM, first compound 0.3 µM", "result": 1.23, "unit": "%"}, {"measurement": "viability, T/C", "setting": "second compound 3.16 µM, first compound 0.000949 µM", "result": 30.9, "unit": "%"}, {"measurement": "viability, T/C", "setting": "second compound 3.16 µM, first compound 0.003 µM", "result": 19.4, "unit": "%"}, {"measurement": "viability, T/C", "setting": "second compound 3.16 µM, first compound 0.00949 µM", "result": 2.49, "unit": "%"}, {"measurement": "viability, T/C", "setting": "second compound 3.16 µM, first compound 0.03 µM", "result": 2.35, "unit": "%"}, {"measurement": "viability, T/C", "setting": "second compound 3.16 µM, first compound 0.0949 µM", "result": 0.79, "unit": "%"}, {"measurement": "viability, T/C", "setting": "second compound 3.16 µM, first compound 0.3 µM", "result": 0.78, "unit": "%"}, {"measurement": "viability, T/C", "setting": "second compound 10 µM, first compound 0.000949 µM", "result": 25, "unit": "%"}, {"measurement": "viability, T/C", "setting": "second compound 10 µM, first compound 0.003 µM", "result": 15, "unit": "%"}, {"measurement": "viability, T/C", "setting": "second compound 10 µM, first compound 0.00949 µM", "result": 3.13, "unit": "%"}, {"measurement": "viability, T/C", "setting": "second compound 10 µM, first compound 0.03 µM", "result": 3.29, "unit": "%"}, {"measurement": "viability, T/C", "setting": "second compound 10 µM, first compound 0.0949 µM", "result": 0.81, "unit": "%"}, {"measurement": "viability, T/C", "setting": "second compound 10 µM, first compound 0.3 µM", "result": 0.61, "unit": "%"}]}, {"smiles": "O=C(c1cc(Cc2n[nH]c(=O)c3ccccc23)ccc1F)N1CCN(C(=O)C2CC2)CC1", "note": "+ CNC(=O)c1ccc(Nc2nc(OC3CCCC3)c3c(-c4ccc5nc(C)oc5c4)c[nH]c3n2)c(OC)c1", "values": [{"measurement": "IC50", "setting": "second compound 0.0316 µM", "result": "> 10000", "unit": "nM"}, {"measurement": "IC50", "setting": "second compound 0.1 µM", "result": "> 10000", "unit": "nM"}, {"measurement": "IC50", "setting": "second compound 0.316 µM", "result": "> 10000", "unit": "nM"}, {"measurement": "IC50", "setting": "second compound 1 µM", "result": "< 31.6", "unit": "nM"}, {"measurement": "IC50", "setting": "second compound 3.16 µM", "result": "< 31.6", "unit": "nM"}, {"measurement": "IC50", "setting": "second compound 10 µM", "result": "< 31.6", "unit": "nM"}, {"measurement": "viability, T/C", "setting": "second compound 0.0316 µM, first compound 0.0316 µM", "result": 99.4, "unit": "%"}, {"measurement": "viability, T/C", "setting": "second compound 0.0316 µM, first compound 0.1 µM", "result": 106, "unit": "%"}, {"measurement": "viability, T/C", "setting": "second compound 0.0316 µM, first compound 0.316 µM", "result": 101, "unit": "%"}, {"measurement": "viability, T/C", "setting": "second compound 0.0316 µM, first compound 1 µM", "result": 106, "unit": "%"}, {"measurement": "viability, T/C", "setting": "second compound 0.0316 µM, first compound 3.16 µM", "result": 110, "unit": "%"}, {"measurement": "viability, T/C", "setting": "second compound 0.0316 µM, first compound 10 µM", "result": 101, "unit": "%"}, {"measurement": "viability, T/C", "setting": "second compound 0.1 µM, first compound 0.0316 µM", "result": 104, "unit": "%"}, {"measurement": "viability, T/C", "setting": "second compound 0.1 µM, first compound 0.1 µM", "result": 107, "unit": "%"}, {"measurement": "viability, T/C", "setting": "second compound 0.1 µM, first compound 0.316 µM", "result": 98.3, "unit": "%"}, {"measurement": "viability, T/C", "setting": "second compound 0.1 µM, first compound 1 µM", "result": 105, "unit": "%"}, {"measurement": "viability, T/C", "setting": "second compound 0.1 µM, first compound 3.16 µM", "result": 111, "unit": "%"}, {"measurement": "viability, T/C", "setting": "second compound 0.1 µM, first compound 10 µM", "result": 101, "unit": "%"}, {"measurement": "viability, T/C", "setting": "second compound 0.316 µM, first compound 0.0316 µM", "result": 73.5, "unit": "%"}, {"measurement": "viability, T/C", "setting": "second compound 0.316 µM, first compound 0.1 µM", "result": 72.1, "unit": "%"}, {"measurement": "viability, T/C", "setting": "second compound 0.316 µM, first compound 0.316 µM", "result": 67.1, "unit": "%"}, {"measurement": "viability, T/C", "setting": "second compound 0.316 µM, first compound 1 µM", "result": 66.5, "unit": "%"}, {"measurement": "viability, T/C", "setting": "second compound 0.316 µM, first compound 3.16 µM", "result": 66, "unit": "%"}, {"measurement": "viability, T/C", "setting": "second compound 0.316 µM, first compound 10 µM", "result": 51.8, "unit": "%"}, {"measurement": "viability, T/C", "setting": "second compound 1 µM, first compound 0.0316 µM", "result": 36.1, "unit": "%"}, {"measurement": "viability, T/C", "setting": "second compound 1 µM, first compound 0.1 µM", "result": 38.5, "unit": "%"}, {"measurement": "viability, T/C", "setting": "second compound 1 µM, first compound 0.316 µM", "result": 32.3, "unit": "%"}, {"measurement": "viability, T/C", "setting": "second compound 1 µM, first compound 1 µM", "result": 35.6, "unit": "%"}, {"measurement": "viability, T/C", "setting": "second compound 1 µM, first compound 3.16 µM", "result": 44.1, "unit": "%"}, {"measurement": "viability, T/C", "setting": "second compound 1 µM, first compound 10 µM", "result": 39, "unit": "%"}, {"measurement": "viability, T/C", "setting": "second compound 3.16 µM, first compound 0.0316 µM", "result": 32.2, "unit": "%"}, {"measurement": "viability, T/C", "setting": "second compound 3.16 µM, first compound 0.1 µM", "result": 36.8, "unit": "%"}, {"measurement": "viability, T/C", "setting": "second compound 3.16 µM, first compound 0.316 µM", "result": 25.4, "unit": "%"}, {"measurement": "viability, T/C", "setting": "second compound 3.16 µM, first compound 1 µM", "result": 34, "unit": "%"}, {"measurement": "viability, T/C", "setting": "second compound 3.16 µM, first compound 3.16 µM", "result": 28.4, "unit": "%"}, {"measurement": "viability, T/C", "setting": "second compound 3.16 µM, first compound 10 µM", "result": 33.5, "unit": "%"}, {"measurement": "viability, T/C", "setting": "second compound 10 µM, first compound 0.0316 µM", "result": 34.1, "unit": "%"}, {"measurement": "viability, T/C", "setting": "second compound 10 µM, first compound 0.1 µM", "result": 24.7, "unit": "%"}, {"measurement": "viability, T/C", "setting": "second compound 10 µM, first compound 0.316 µM", "result": 31.5, "unit": "%"}, {"measurement": "viability, T/C", "setting": "second compound 10 µM, first compound 1 µM", "result": 34.2, "unit": "%"}, {"measurement": "viability, T/C", "setting": "second compound 10 µM, first compound 3.16 µM", "result": 34.8, "unit": "%"}, {"measurement": "viability, T/C", "setting": "second compound 10 µM, first compound 10 µM", "result": 33.8, "unit": "%"}]}]}
